Where two headings read alike, the source gives them in different places.
Legend:
histone acetylation = test: Histone acetylation by western blot in primary human erythroblasts; format: cell-based; conditions: 1 μM or 5 μM, 24 hours
Description: The EpiQuick Total Histone Extraction kit (Epigentek) was used to isolate histones. Histone lysates were size separated on Bolt 4–12% Bis-Tris gradient gels (Life Technologies), transferred to polyvinylidene difluoride membrane and detected using standard western blotting technique. GATA2 protein was detected by lysing cells in RIPA denaturing buffer supplemented with protease inhibitors followed by detection using a Wes capillary electrophoresis system (Protein Simple) or western blotting on nitrocellulose membrane. Antibodies used for western blotting: Anti-GATA2 [clone EPR2822(2)] (Abcam), anti-ACTB [clone 1E35] (Cell Signaling Technology), anti-H3K9/14 [catalog number 17–615] (EMD Millipore), anti-H3K56ac [clone EPR996Y] (Abcam), anti-H3K79 [catalog number 07–750] (EMD Millipore), anti-H2BK5 [catalog number 2574] (Cell Signaling Technology), anti-H3K9me3 [catalog number 07–442] (EMD Millipore), and anti-total-H4 [clone 62-141-13] (EMD Millipore).
Next, ACY-957’s ability to inhibit HDAC activity in primary hematopoietic progenitors derived from human bone marrow was investigated. […]

HBG mRNA = HBG mRNA in burst forming unit erythroid (BFU-E) colonies; format: cell-based, human; conditions: 14 days
Protocol: Burst forming unit erythroid (BFU-E) assays were performed by ReachBio Research Labs (Seattle, WA). On the day of the experiment, normal human bone marrow mononuclear cells (Lonza) were thawed rapidly, diluted in 10 mL of IMDM containing 10% fetal bovine serum and washed by centrifugation. The supernatant was discarded and the cell pellet resuspended in a known volume of IMDM + 10% FBS. ACY-957 or vehicle was added to a semi-solid methylcellulose-based media formulation containing IL3 (10 ng/mL), CSF2 (10 ng/mL), KITLG (50 ng/mL), and EPO (3 U/mL) and plated in triplicate. BFU-E assays were initiated at 2.5 x 10^4 cells per culture. Following 14–16 days in culture, BFU-E colonies were isolated and RNA purified using the RNeasy Micro Kit (Qiagen).
Globin mRNA was detected using quantitative real time PCR (QPCR). Total RNA was isolated using RNeasy Micro Kit (Qiagen) with on-column DNase digestion, converted into cDNA using the High Capacity RNA-to-cDNA Kit (Life Technologies), diluted 5-fold with water, and 1 μL used as a template for QPCR. The percent of each β-like globin transcript was determined using the absolute standard curve method. Briefly, DNA corresponding to the full length transcript for each globin isoform was cloned into […] plasmid (GenScript, Piscataway NJ). Each plasmid was validated against each QPCR probe to ensure specificity. Plasmids were pooled at equal molar concentration and a dilution series spanning 8-logs was utilized as the standard curve. Throughout this work, ‘HBG mRNA (%)’ and ‘percent HBG mRNA’ refers to the abundance of HBG mRNA expressed relative to the sum of the abundances of all β-like globin transcripts, i.e. [HBG/(HBB+HBD+HBG+HBE)]*100. In cases where the transcript of interest was compared against the housekeeping gene ACTB, the comparative Ct ([…]) method was utilized. […]

[1] = test system: histone acetylation at GATA2 regulatory regions; test: ChIP-QPCR of histone acetylation at GATA2 regulatory regions; format: cell-based, human; conditions: -1.8 kb GATA2 regulatory region, 1 μM
Protocol: Cells were fixed in 1% formaldehyde for 15 minutes at room temperature. Crosslinking reaction was extinguished by adding glycine to 125 mM. Cells were washed three times in PBS, 0.5% lgepal CA-630, 1 mM phenylmethanesulfonyl fluoride (PMSF). Cell pellets were snap frozen on dry ice and stored at -80°C.
For ChIP-QPCR experiments, chromatin (11 μg) from vehicle (n = 1) or ACY-957 (n = 1) treated cells was fragmented by sonication, then immunoprecipitated (n = 3, each) using antibodies against histone H3 lysine 9 acetylation (3 μg, ab10812, Abcam), histone H2B lysine 5 acetylation (6 μL, ab40886, Abcam), histone H3 lysine 27 acetylation (3 μg, ab4729, Abcam), or GATA2 (6 μg, SC-9008, Santa Cruz). Specific genomic regions within immunoprecipitated and input DNA was detected using SYBR green QPCR with the following primer pairs:
To investigate how HDAC1/2 inhibition drives GATA2 activation, we performed a series of chromatin immunoprecipitation (ChIP) experiments. BM cells were expanded in CS1, and then shifted to CS1 differentiation media in the presence of vehicle or 1 μM ACY-957 for several days, yielding erythroid progenitor cells with TFRC/GYPA differentiation profiles similar to those used for GeneChip experiments and unaffected by compound treatment (Fig 8A and 8B). […]

[2] = set-up: method as in earlier work; conditions: mouse; cited from earlier work
[3] = set-up: method as in earlier work; conditions: rat; cited from earlier work
[4] = set-up: method as in earlier work; conditions: dog; cited from earlier work
[5] = set-up: method as in earlier work; conditions: monkey; cited from earlier work

SMILES: Nc1ccc(-c2cccs2)cc1NC(=O)c1ccc2nc(N3CCNCC3)ccc2c1 [ACY-957]
- acetylation of H3K9/14ac, H3K56, H3K79ac and H2BK5ac (histone acetylation): dose-dependent accumulation of acetylation
- histone H3 lysine 9 tri-methylation (H3K9me3) (histone acetylation): not affected
- each β-like globin transcript relative to ACTB (HBG mRNA): increased HBE and HBG mRNA and decreased HBD and HBB mRNA
- percent HBG (HBG mRNA; 1 μM): 48%
- percent HBG (HBG mRNA; 2 μM): 82%
- maximum increases in histone acetylation (H3K9ac, H2BK5ac, H3K27ac) [1]: 4- to 8 fold
- pharmacokinetic properties [2]: favorable
- pharmacokinetic properties [3]: favorable
- pharmacokinetic properties [4]: favorable
- pharmacokinetic properties [5]: favorable

Source: article PMC4830539, “Chemical Inhibition of Histone Deacetylases 1 and 2 Induces Fetal Hemoglobin through Activation of GATA2” (PLoS ONE, 2016)
